This passage reports IC50 and inhibition results from patent US10723723B2, “Substituted bicycle heterocyclic derivatives useful as ROMK channel inhibitors” (BRISTOL-MYERS SQUIBB COMPANY, priority 2016, dated 2020).

Data set [1] has as its target hROMK (human Kir1.1) (Homo sapiens (Human), UniProt P48048). As to the kind of experiment: Thallium Flux Assay (FluxOR, CHO T-Rex hROMK stable cell line). In kind it is cell-based. The settings on record: CHO T-Rex hROMK cells, 10-point concentration response curve; read-out: Human ROMK TH Flux IC50.
Data set [2] addresses hERG channels (Homo sapiens (Human), UniProt Q12809). Nature of the data set: hERG Manual Patch Clamp Assay (HEK 293 cells stably expressing hERG channels). The data set is classed as cell-based. The settings on record: human, HEK 293 cells stably expressing hERG channels, pH 7.4.

The structures appear in SMILES notation.

Sequence of hERG channels (Q12809 whole entry): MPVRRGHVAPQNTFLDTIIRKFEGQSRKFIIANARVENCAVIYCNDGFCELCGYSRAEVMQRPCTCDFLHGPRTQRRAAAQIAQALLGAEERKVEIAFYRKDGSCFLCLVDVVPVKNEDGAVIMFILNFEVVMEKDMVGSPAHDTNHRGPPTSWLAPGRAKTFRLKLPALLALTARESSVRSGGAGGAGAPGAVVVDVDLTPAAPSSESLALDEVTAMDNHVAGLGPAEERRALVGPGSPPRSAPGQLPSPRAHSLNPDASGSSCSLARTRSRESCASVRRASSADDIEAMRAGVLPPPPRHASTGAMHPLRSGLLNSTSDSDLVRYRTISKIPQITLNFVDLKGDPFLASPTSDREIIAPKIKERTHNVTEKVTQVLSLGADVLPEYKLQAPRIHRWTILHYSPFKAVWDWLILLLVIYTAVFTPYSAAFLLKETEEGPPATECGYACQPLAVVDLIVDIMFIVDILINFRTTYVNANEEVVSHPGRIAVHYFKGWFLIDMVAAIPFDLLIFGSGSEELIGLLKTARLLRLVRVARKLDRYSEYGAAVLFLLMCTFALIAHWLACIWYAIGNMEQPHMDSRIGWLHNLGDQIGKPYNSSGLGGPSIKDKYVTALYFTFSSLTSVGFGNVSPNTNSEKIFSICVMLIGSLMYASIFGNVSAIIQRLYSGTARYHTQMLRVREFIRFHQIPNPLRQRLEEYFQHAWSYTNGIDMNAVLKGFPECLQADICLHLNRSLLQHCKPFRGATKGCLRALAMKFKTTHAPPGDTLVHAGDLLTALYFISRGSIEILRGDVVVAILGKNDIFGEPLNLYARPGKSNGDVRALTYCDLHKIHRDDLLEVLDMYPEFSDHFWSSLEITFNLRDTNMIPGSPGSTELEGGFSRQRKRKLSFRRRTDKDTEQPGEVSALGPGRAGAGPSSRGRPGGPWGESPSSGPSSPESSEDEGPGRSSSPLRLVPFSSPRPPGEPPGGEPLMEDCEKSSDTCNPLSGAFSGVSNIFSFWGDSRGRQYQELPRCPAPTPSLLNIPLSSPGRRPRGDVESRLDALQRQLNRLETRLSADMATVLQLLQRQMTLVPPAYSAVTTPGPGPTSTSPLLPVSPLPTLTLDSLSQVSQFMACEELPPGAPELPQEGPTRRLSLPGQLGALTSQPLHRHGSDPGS
Sequence of hROMK (human Kir1.1) (P48048 whole entry): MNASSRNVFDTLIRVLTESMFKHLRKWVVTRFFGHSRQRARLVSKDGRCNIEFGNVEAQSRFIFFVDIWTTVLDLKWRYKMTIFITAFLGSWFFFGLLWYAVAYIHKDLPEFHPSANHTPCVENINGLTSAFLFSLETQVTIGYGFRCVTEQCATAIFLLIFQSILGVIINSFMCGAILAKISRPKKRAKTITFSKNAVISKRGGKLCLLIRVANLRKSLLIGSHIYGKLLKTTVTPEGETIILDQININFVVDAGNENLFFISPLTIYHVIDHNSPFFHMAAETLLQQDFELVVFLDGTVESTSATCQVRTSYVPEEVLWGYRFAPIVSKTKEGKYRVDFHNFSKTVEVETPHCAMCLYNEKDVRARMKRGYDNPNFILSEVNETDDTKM

As for `Cc1c([C@@H](O)CNCc2cnn(-c3ccc(C#N)cc3)c2)ccc2c1COC2=O` [Example 160, (R)-4-(4-(((2-hydroxy-2-(4-methyl-1-oxo-1,3-dihydroisobenzofuran-5-yl)ethyl)amino)methyl)-1H-pyrazol-1-yl)benzonitrile], the IC50 in data set [1] worked out at 24 nM. The same molecule returned an inhibition at 1 µM in data set [2] of 89%.

As for `Cc1cc(-n2cc(CNC[C@H](O)c3ccc4c(c3C)COC4=O)c3cccnc32)ncc1C#N` [Example 169, (R)-6-(3-(((2-hydroxy-2-(4-methyl-1-oxo-1,3-dihydroisobenzofuran-5-yl)ethyl)amino)methyl)-1H-pyrrolo[2,3-b]pyridin-1-yl)-4-methylnicotinonitrile], in data set [1], the IC50 came out at 59 nM. The inhibition at 1 µM in data set [2] came to 79%.

For `CCN(Cc1ccc(-c2ccc3oc(=O)n(C)c3c2)nc1)C[C@H](O)c1ccc2c(c1C)COC2=O` [Example 135, (R)-5-(5-((ethyl(2-hydroxy-2-(4-methyl-1-oxo-1,3-dihydroisobenzofuran-5-yl)ethyl)amino)methyl)pyridin-2-yl)-3-methylbenzo[d]oxazol-2(3H)-one], the IC50 in data set [1] came out at 67 nM. Besides, the inhibition at 1 µM in data set [2] is 51%.

As to `Cc1c([C@@H](O)CNCc2cccc(-c3ccc4oc(=O)n(C)c4c3)n2)ccc2c1COC2=O` [Example 133, (R)-5-(6-(((2-hydroxy-2-(4-methyl-1-oxo-1,3-dihydroisobenzofuran-5-yl)ethyl)amino)methyl)pyridin-2-yl)-3-methylbenzo[d]oxazol-2(3H)-one], the half-inhibitory concentration (IC50) in data set [1] came out at 900 nM. Besides, in data set [2], the inhibition at 1 µM stood at 59%.

Consider `Cc1c([C@@H](O)CN(Cc2ccc(-c3ccc4oc(=O)n(C)c4c3)nc2)CC2CC2)ccc2c1COC2=O` [Example 162, (R)-5-(5-(((cyclopropylmethyl)(2-hydroxy-2-(4-methyl-1-oxo-1,3-dihydroisobenzofuran-5-yl)ethyl)amino)methyl)pyridin-2-yl)-3-methylbenzo[d]oxazol-2(3H)-one], for which, in data set [1], the IC50 was determined as 110 nM. In data set [2], this molecule returned an inhibition at 1 µM of 44%.

On to `COCCN[C@@H](CNCc1cnn(-c2cc(C)c(C#N)cn2)c1)c1ccc2c(c1C)COC2=O` [Example 57, (R)-6-(4-(((2-((2-methoxyethyl)amino)-2-(4-methyl-1-oxo-1,3-dihydroisobenzofuran-5-yl)ethyl)amino)methyl)-1H-pyrazol-1-yl)-4-methylnicotinonitrile], for which, in data set [1], the IC50 was determined as 150 nM. This molecule gave an inhibition at 1 µM in data set [2] of 35%.

As to `Cc1ncn(-c2ncc(CNC[C@H](O)c3ccc4c(c3C)COC4=O)cn2)c1C` [Example 88, (R)-5-(2-(((2-(4,5-dimethyl-1H-imidazol-1-yl)pyrimidin-5-yl)methyl)amino)-1-hydroxyethyl)-4-methylisobenzofuran-1(3H)-one], the IC50 in data set [1] was determined as 42 nM. The same molecule had an inhibition at 1 µM in data set [2] of 3.6%.

Regarding `Cc1cc(-n2cc(CNC[C@H](F)c3ccc4c(c3C)COC4=O)cn2)ncc1C#N` [Example 167, (R)-6-(4-(((2-fluoro-2-(4-methyl-1-oxo-1,3-dihydroisobenzofuran-5-yl)ethyl)amino)methyl)-1H-pyrazol-1-yl)-4-methylnicotinonitrile], in data set [1], the IC50 was 68 nM. The inhibition at 1 µM in data set [2] amounted to 41%.

For the molecule `Cc1cc(-n2cc(CNC(C)C(O)c3ccc4c(c3C)COC4=O)cn2)ncc1C#N` (single isomer, unassigned) [Example 176-I, 6-(4-(((1-hydroxy-1-(4-methyl-1-oxo-1,3-dihydroisobenzofuran-5-yl)propan-2-yl)amino)methyl)-1H-pyrazol-1-yl)-4-methylnicotinonitrile], the IC50 in data set [1] was 4 nM. This molecule also had an inhibition at 1 µM in data set [2] of 44%.

In the case of `COC(=O)N[C@@H](CNCc1cnn(-c2cc(C)c(C#N)cn2)c1)c1ccc2c(c1C)COC2=O` [Example 60, methyl (R)-(2-(((1-(5-cyano-4-methylpyridin-2-yl)-1H-pyrazol-4-yl)methyl)amino)-1-(4-methyl-1-oxo-1,3-dihydroisobenzofuran-5-yl)ethyl)carbamate], the IC50 in data set [1] was 72 nM. Moreover, 1 µM produced 12% inhibition in data set [2].

For the molecule `Cc1cc(-n2cc(CNC[C@H](O)c3ccc4c(c3C)COC4=O)n(C)c2=O)ncc1C#N` [Example 159, (R)-6-(4-(((2-hydroxy-2-(4-methyl-1-oxo-1,3-dihydroisobenzofuran-5-yl)ethyl)amino)methyl)-3-methyl-2-oxo-2,3-dihydro-1H-imidazol-1-yl)-4-methylnicotinonitrile], the IC50 in data set [1] amounted to 93 nM. Moreover, the inhibition at 1 µM in data set [2] was determined as 6.5%.

With `Cc1cc(-n2cnc(CNC[C@H](O)c3ccc4c(c3C)COC4=O)c2)nc(C)c1C#N` [Example 68, (R)-6-(4-(((2-hydroxy-2-(4-methyl-1-oxo-1,3-dihydroisobenzofuran-5-yl)ethyl)amino)methyl)-1H-imidazol-1-yl)-2,4-dimethylnicotinonitrile], in data set [1], the IC50 was 38 nM. In data set [2], this molecule registered an inhibition at 1 µM of 17%.

`CCc1nn(-c2ncc(CNC[C@H](O)c3ccc4c(c3C)COC4=O)cn2)cc1C#N` [Example 114, (R)-3-ethyl-1-(5-(((2-hydroxy-2-(4-methyl-1-oxo-1,3-dihydroisobenzofuran-5-yl)ethyl)amino)methyl)pyrimidin-2-yl)-1H-pyrazole-4-carbonitrile]: the IC50 in data set [1] came to 17 nM. Further, in data set [2], the inhibition at 1 µM was found to be 25%.

As for `CO[C@@H](CNCc1cnn(-c2cc(C)c(C#N)cn2)c1)c1ccc2c(c1C)COC2=O` [Example 147, (R)-6-(4-(((2-methoxy-2-(4-methyl-1-oxo-1,3-dihydroisobenzofuran-5-yl)ethyl)amino)methyl)-1H-pyrazol-1-yl)-4-methylnicotinonitrile], the IC50 in data set [1] is 37 nM. In addition, the inhibition at 1 µM in data set [2] worked out at 28%.

Regarding `COc1nn(-c2ccc(CNC[C@H](O)c3ccc4c(c3C)COC4=O)cn2)cc1C#N` [Example 104, (R)-1-(5-(((2-hydroxy-2-(4-methyl-1-oxo-1,3-dihydroisobenzofuran-5-yl)ethyl)amino)methyl)pyridin-2-yl)-3-methoxy-1H-pyrazole-4-carbonitrile], the IC50 in data set [1] is 9.4 nM. Also, the inhibition at 1 µM in data set [2] stood at 42%.

As for `Cc1c([C@@H](O)CNCc2cnn(-c3cc(F)c4oc(=O)n(C)c4c3)c2)ccc2c1COC2=O` (single isomer, unassigned) [Example 107], the IC50 in data set [1] is 27 nM. In data set [2], the inhibition at 1 µM amounted to 20%.

`Cc1cc(-n2cc(CNC[C@H](O)c3ccc4c(c3C)COC4=O)c(C(F)F)n2)ncc1C#N` [Example 93, (R)-6-(3-(difluoromethyl)-4-(((2-hydroxy-2-(4-methyl-1-oxo-1,3-dihydroisobenzofuran-5-yl)ethyl)amino)methyl)-1H-pyrazol-1-yl)-4-methylnicotinonitrile]: in data set [1], the IC50 came to 15 nM. In data set [2], this molecule gave an inhibition at 1 µM of 29%.

For the molecule `COc1cc(-n2cc(CNC[C@H](O)c3ccc4c(c3OC)COC4=O)cn2)ncc1C#N` [Example 150, (R)-6-(4-(((2-hydroxy-2-(4-methoxy-1-oxo-1,3-dihydroisobenzofuran-5-yl)ethyl)amino)methyl)-1H-pyrazol-1-yl)-4-methoxynicotinonitrile], the IC50 in data set [1] was found to be 56 nM. This molecule also returned an inhibition at 1 µM in data set [2] of 55%.
